Columns and labels:
Adenosine receptor A1 = molecular target: T1, Adenosine receptor A1 (Homo sapiens, UniProt P30542)
T1 sequence (P30542 whole entry): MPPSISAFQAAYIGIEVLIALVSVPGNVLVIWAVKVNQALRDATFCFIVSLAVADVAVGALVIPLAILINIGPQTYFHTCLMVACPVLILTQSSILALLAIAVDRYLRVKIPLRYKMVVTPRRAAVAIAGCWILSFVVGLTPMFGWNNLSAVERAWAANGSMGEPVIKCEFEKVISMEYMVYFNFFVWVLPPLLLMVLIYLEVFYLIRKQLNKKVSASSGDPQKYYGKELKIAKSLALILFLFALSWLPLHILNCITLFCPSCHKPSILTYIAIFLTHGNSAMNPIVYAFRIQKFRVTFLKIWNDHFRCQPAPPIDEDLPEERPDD

Adenosine receptor A3 = molecular target: T2, Adenosine receptor A3 (Homo sapiens, UniProt P0DMS8)
T2 sequence (P0DMS8 whole entry): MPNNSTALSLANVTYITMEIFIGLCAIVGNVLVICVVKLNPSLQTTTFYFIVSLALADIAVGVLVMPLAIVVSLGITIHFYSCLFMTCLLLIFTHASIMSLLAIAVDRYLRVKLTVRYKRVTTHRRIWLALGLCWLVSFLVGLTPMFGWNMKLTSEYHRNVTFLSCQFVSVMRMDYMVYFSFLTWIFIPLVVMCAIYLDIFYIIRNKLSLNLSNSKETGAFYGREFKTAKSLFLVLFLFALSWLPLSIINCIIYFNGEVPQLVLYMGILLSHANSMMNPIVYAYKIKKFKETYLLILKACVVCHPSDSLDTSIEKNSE

[1] = molecular target: T3, Type-1 angiotensin II receptor (Homo sapiens, UniProt P30556)
T3 sequence (P30556 whole entry): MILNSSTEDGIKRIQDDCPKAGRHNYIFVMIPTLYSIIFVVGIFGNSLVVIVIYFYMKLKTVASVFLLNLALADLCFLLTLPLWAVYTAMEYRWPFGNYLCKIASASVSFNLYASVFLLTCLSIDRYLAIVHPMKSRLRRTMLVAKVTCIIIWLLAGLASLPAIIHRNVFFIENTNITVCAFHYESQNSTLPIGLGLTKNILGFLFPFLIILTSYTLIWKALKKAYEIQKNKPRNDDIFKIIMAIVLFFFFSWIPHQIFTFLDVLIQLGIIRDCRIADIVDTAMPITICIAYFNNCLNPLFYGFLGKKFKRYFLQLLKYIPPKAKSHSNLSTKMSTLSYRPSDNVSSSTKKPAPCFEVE

[2] = molecular target: T4, Muscarinic acetylcholine receptor M2 (Homo sapiens, UniProt P08172); format: functional, cell-based
T4 sequence (P08172 whole entry): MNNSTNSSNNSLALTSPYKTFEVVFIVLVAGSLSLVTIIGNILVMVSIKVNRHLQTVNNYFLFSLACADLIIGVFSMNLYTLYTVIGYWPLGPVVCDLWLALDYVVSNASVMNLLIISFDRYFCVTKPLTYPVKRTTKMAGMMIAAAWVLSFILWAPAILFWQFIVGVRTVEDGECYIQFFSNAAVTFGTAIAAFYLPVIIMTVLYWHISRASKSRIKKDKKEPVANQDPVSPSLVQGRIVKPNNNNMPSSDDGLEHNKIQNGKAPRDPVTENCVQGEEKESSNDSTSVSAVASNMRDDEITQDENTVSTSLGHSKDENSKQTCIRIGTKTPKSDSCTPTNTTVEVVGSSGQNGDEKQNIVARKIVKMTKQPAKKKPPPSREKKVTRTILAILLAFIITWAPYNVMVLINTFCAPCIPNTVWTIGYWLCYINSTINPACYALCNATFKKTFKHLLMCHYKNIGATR

[3] = molecular target: Neuronal acetylcholine receptor subunit alpha-4 (Homo sapiens, UniProt P43681)
Sequence of Neuronal acetylcholine receptor subunit alpha-4 (P43681 whole entry): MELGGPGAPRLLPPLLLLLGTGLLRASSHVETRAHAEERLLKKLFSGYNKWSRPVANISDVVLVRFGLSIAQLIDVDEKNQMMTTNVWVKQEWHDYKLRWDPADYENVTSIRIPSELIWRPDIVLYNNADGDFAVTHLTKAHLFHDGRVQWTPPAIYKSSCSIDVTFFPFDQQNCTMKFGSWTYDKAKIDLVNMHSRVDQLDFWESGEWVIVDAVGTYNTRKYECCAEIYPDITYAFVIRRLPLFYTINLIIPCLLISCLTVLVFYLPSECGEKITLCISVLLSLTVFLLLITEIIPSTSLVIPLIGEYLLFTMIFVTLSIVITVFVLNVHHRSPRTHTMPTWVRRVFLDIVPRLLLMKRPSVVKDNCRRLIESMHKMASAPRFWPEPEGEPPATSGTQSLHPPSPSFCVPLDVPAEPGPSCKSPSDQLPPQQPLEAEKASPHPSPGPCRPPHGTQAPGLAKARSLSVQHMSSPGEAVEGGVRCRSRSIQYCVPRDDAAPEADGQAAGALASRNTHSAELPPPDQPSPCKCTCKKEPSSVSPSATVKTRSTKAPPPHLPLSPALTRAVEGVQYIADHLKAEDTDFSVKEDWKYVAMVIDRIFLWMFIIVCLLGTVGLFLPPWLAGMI

[4] = molecular target: 5-hydroxytryptamine receptor 2B (Homo sapiens, UniProt P41595); format: functional, cell-based
Sequence of 5-hydroxytryptamine receptor 2B (P41595 whole entry): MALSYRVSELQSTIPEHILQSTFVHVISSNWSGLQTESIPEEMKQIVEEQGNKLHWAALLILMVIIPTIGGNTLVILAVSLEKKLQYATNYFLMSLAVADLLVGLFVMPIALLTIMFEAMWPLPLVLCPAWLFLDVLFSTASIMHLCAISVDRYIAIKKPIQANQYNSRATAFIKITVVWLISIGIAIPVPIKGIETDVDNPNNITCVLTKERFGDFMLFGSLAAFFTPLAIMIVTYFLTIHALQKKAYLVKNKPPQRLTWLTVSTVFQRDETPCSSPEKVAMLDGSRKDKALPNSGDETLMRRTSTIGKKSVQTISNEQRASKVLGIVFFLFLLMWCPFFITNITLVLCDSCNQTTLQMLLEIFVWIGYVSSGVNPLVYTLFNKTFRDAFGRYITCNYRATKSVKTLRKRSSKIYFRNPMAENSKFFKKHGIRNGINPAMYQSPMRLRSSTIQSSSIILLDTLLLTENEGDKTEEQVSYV

[5] = molecular target: T5, 5-hydroxytryptamine receptor 3A (Homo sapiens, UniProt P46098); format: functional
T5 sequence (P46098 whole entry): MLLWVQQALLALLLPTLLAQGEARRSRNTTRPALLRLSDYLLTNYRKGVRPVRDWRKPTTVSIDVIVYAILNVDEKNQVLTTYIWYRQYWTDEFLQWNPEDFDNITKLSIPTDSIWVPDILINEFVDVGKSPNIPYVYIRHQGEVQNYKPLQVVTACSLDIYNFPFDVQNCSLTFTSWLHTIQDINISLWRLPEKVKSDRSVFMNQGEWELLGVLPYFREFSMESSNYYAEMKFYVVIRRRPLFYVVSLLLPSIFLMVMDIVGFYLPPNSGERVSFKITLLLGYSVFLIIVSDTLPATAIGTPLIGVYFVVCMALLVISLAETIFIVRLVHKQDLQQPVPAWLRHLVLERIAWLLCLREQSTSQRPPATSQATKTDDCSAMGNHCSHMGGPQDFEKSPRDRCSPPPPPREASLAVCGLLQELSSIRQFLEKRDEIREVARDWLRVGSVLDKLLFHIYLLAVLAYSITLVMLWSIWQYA

[6] = molecular target: Voltage-gated inwardly rectifying potassium channel KCNH2 (Homo sapiens, UniProt Q12809); format: functional; conditions: read-out: AC50
Sequence of Voltage-gated inwardly rectifying potassium channel KCNH2 (Q12809 whole entry): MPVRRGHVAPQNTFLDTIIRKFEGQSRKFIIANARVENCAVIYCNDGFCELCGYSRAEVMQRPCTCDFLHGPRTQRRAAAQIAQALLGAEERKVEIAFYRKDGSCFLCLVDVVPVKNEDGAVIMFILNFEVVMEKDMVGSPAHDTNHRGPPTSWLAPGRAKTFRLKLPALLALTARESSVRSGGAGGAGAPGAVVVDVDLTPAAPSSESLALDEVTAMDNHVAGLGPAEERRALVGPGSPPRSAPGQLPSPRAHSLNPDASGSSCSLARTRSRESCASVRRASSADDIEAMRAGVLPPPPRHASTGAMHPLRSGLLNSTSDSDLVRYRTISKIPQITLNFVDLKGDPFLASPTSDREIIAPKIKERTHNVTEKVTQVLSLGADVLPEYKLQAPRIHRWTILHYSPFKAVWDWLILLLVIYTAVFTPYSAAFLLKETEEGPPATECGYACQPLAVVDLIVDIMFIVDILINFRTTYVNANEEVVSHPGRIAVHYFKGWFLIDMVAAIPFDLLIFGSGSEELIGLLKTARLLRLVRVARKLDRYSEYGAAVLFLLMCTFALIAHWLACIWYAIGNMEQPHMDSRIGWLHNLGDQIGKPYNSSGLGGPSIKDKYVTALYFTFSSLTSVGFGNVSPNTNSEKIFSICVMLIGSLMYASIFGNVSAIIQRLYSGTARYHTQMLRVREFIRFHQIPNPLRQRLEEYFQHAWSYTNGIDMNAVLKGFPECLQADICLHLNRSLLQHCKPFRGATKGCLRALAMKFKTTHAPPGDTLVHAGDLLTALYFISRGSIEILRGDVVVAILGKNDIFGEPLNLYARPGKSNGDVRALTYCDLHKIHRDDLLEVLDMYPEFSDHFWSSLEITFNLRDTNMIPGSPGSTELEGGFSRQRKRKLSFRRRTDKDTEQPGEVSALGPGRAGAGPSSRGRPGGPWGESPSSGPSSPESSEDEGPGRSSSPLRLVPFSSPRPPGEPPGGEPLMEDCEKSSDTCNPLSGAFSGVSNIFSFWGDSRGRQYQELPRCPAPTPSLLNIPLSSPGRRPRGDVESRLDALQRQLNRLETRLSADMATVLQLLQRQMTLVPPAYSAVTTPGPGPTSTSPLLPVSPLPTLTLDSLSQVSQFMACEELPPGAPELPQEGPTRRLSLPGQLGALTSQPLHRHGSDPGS

Motilin receptor = Motilin receptor (Homo sapiens, UniProt O43193)
Sequence of Motilin receptor (O43193 whole entry): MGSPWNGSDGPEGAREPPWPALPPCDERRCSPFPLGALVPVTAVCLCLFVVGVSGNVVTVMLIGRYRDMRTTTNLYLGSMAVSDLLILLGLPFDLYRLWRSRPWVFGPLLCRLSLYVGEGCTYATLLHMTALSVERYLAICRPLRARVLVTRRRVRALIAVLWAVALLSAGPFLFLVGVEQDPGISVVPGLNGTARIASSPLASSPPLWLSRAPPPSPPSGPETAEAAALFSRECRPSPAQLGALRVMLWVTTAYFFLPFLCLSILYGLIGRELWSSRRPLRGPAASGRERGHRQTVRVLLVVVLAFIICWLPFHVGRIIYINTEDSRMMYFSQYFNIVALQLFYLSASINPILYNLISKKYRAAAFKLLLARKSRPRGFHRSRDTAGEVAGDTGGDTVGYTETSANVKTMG

[7] = molecular target: Delta-type opioid receptor (Homo sapiens, UniProt P41143)
Sequence of Delta-type opioid receptor (P41143 whole entry): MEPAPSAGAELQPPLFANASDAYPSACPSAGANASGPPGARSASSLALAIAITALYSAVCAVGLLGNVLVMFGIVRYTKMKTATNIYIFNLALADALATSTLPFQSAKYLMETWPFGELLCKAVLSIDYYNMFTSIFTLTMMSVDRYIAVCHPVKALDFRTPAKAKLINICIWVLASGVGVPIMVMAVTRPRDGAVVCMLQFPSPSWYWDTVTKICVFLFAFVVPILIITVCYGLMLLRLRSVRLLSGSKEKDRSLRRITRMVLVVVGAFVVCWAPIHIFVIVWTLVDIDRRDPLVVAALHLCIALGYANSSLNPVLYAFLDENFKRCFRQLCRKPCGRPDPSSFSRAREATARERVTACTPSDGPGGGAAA

[8] = molecular target: T6, Equilibrative nucleoside transporter 1 (Homo sapiens, UniProt Q99808)
T6 sequence (Q99808 whole entry): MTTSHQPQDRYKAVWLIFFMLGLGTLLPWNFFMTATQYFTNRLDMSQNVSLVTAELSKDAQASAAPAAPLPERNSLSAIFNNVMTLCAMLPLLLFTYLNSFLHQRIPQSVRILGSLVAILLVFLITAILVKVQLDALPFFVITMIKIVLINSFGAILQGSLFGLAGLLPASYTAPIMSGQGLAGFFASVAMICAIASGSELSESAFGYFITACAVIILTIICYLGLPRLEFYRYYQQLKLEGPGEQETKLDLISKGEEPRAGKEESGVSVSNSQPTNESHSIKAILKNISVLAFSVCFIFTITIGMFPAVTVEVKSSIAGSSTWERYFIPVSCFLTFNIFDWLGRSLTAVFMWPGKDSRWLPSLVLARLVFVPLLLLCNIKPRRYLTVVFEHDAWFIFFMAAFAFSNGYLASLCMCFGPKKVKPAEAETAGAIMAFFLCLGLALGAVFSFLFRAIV
Note: assay procedure not described here.

NC(=O)c1ncn([C@@H]2O[C@H](CO)[C@@H](O)[C@H]2O)c1O [MIZORIBINE]
AC50 (Adenosine receptor A1): > 30 µM
AC50 (Adenosine receptor A3): > 30 µM
AC50 [1]: > 30 µM
AC50 [2]: > 30 µM
AC50 [3]: > 30 µM
AC50 [4]: > 30 µM
AC50 [5]: > 30 µM
AC50 [6]: > 30 µM
AC50 (Motilin receptor): > 30 µM
AC50 [7]: > 30 µM
AC50 [8]: > 30 µM

OCCN1CCN(CCCN2c3ccccc3C=Cc3ccccc32)CC1 [OPIPRAMOL]
AC50 (Adenosine receptor A1): > 30 µM
AC50 (Adenosine receptor A3): > 30 µM
AC50 [1]: > 30 µM
AC50 [2]: > 30 µM
AC50 [3]: > 30 µM
AC50 [4]: > 30 µM
AC50 [5]: > 30 µM
AC50 [6]: 14 µM
AC50 (Motilin receptor): > 30 µM
AC50 [7]: > 30 µM
AC50 [8]: > 30 µM

NC1=NC(=O)C(c2ccccc2)O1 (stereo unspecified) [PEMOLINE]
AC50 (Adenosine receptor A1): > 30 µM
AC50 (Adenosine receptor A3): > 30 µM
AC50 [1]: > 30 µM
AC50 [2]: > 10 µM
AC50 [3]: > 10 µM
AC50 [4]: > 10 µM
AC50 [5]: > 30 µM
AC50 [6]: > 30 µM
AC50 (Motilin receptor): > 10 µM
AC50 [7]: > 30 µM
AC50 [8]: > 30 µM

CC(C(=O)O)c1ccc(N2CC=CC2)c(Cl)c1 (stereo unspecified) [PIRPROFEN]
AC50 (Adenosine receptor A1): > 30 µM
AC50 (Adenosine receptor A3): > 30 µM
AC50 [1]: > 30 µM
AC50 [2]: > 10 µM
AC50 [3]: > 10 µM
AC50 [4]: > 10 µM
AC50 [5]: > 30 µM
AC50 [6]: > 30 µM
AC50 (Motilin receptor): > 10 µM
AC50 [7]: > 30 µM
AC50 [8]: > 30 µM

CC[C@H](C)C(=O)O[C@H]1C[C@H](O)C=C2C=C[C@H](C)[C@H](CC[C@@H](O)C[C@@H](O)CC(=O)O)[C@H]21 [PRAVASTATIN]
AC50 (Adenosine receptor A1): > 30 µM
AC50 (Adenosine receptor A3): > 30 µM
AC50 [1]: > 30 µM
AC50 [2]: > 30 µM
AC50 [3]: > 30 µM
AC50 [4]: > 30 µM
AC50 [5]: > 30 µM
AC50 [6]: > 30 µM
AC50 (Motilin receptor): > 30 µM
AC50 [7]: > 30 µM
AC50 [8]: > 30 µM

NC(=O)c1cnccn1 [PYRAZINAMIDE]
AC50 (Adenosine receptor A1): > 30 µM
AC50 (Adenosine receptor A3): 3.86 µM
AC50 [1]: > 30 µM
AC50 [2]: > 30 µM
AC50 [3]: > 30 µM
AC50 [4]: > 30 µM
AC50 [5]: > 30 µM
AC50 [6]: > 30 µM
AC50 (Motilin receptor): > 30 µM
AC50 [7]: > 30 µM
AC50 [8]: > 30 µM

CC(C(=O)O)c1ccc(C(=O)c2cccs2)cc1 (stereo unspecified) [SUPROFEN]
AC50 (Adenosine receptor A1): > 10 µM
AC50 (Adenosine receptor A3): > 10 µM
AC50 [1]: > 10 µM
AC50 [2]: > 10 µM
AC50 [3]: > 10 µM
AC50 [4]: > 10 µM
AC50 [5]: > 30 µM
AC50 [6]: > 30 µM
AC50 (Motilin receptor): > 10 µM
AC50 [7]: > 30 µM
AC50 [8]: > 10 µM

CS(=O)(=O)c1ccc([C@@H](O)[C@@H](CO)NC(=O)C(Cl)Cl)cc1 [THIAMPHENICOL]
AC50 (Adenosine receptor A1): > 30 µM
AC50 (Adenosine receptor A3): > 30 µM
AC50 [1]: > 30 µM
AC50 [2]: > 30 µM
AC50 [3]: > 30 µM
AC50 [4]: > 30 µM
AC50 [5]: > 30 µM
AC50 [6]: > 30 µM
AC50 (Motilin receptor): > 30 µM
AC50 [7]: > 30 µM
AC50 [8]: > 30 µM

Cc1ccc(C(=O)c2cc(O)c(O)c([N+](=O)[O-])c2)cc1 [TOLCAPONE]
AC50 (Adenosine receptor A1): 15.6 µM
AC50 (Adenosine receptor A3): 11.9 µM
AC50 [1]: > 10 µM
AC50 [2]: > 10 µM
AC50 [3]: > 10 µM
AC50 [4]: > 10 µM
AC50 [5]: > 10 µM
AC50 [6]: 1.95 µM
AC50 (Motilin receptor): > 10 µM
AC50 [7]: > 30 µM
AC50 [8]: > 30 µM

NC[C@H]1CC[C@H](C(=O)O)CC1 [TRANEXAMIC ACID]
AC50 (Adenosine receptor A1): > 10 µM
AC50 (Adenosine receptor A3): > 10 µM
AC50 [1]: > 10 µM
AC50 [2]: > 10 µM
AC50 [3]: > 10 µM
AC50 [4]: > 10 µM
AC50 [5]: > 30 µM
AC50 [6]: > 30 µM
AC50 (Motilin receptor): > 10 µM
AC50 [7]: > 30 µM
AC50 [8]: > 10 µM

CCCS(=O)(=O)Nc1ccc(F)c(C(=O)c2c[nH]c3ncc(-c4ccc(Cl)cc4)cc23)c1F [VEMURAFENIB]
AC50 (Adenosine receptor A1): > 30 µM
AC50 (Adenosine receptor A3): 18 µM
AC50 [1]: > 30 µM
AC50 [2]: > 30 µM
AC50 [3]: > 30 µM
AC50 [4]: > 30 µM
AC50 [5]: > 30 µM
AC50 [6]: > 30 µM
AC50 (Motilin receptor): > 30 µM
AC50 [7]: > 30 µM
AC50 [8]: > 30 µM
